Data as given in publication PMC6858373 (Scientific Reports, 2019).
Where a name gives a salt, the structure may show the parent alone. Read-outs that look alike come from different tables or passages of the source.

Key:
[1] = target: T1, FGF14:Nav1.6 C-tail complex (Homo sapiens, UniProt Q92915+Q9UQD0); test: Split-luciferase complementation assay (LCA) in Clone V double stable HEK293 cells; format: cell-based; settings: for Split Luciferase Assay Z-score Set 1 / Split Luciferase Assay Z-score Set 2: normalized to on-plate 0.3% DMSO controls; for Z-score (LCA primary screening): 30 µM, average of primary screening (n = 2), vs on-plate 0.3% DMSO; for EMax (% Luminescence): agonists
T1 construct: polymerase chain reaction (PCR) amplification of the FGF14 open reading frame (nt 1–855); C-terminal fragment of Nav1.6 (amino acids 1763–1976) fused with CD4ΔC-tail (amino acids 1–395); expressed in transfected cells

[2] = target: full-length P. pyralis luciferase (Photinus pyralis, UniProt P08659, K549A/L550V/N119G/N50D/S548I); format: cell-based
Clone V cells = settings: human
in vitro = settings: human
[3] = CC_NCI screening, biological replicate Set 1
[4] = CC_NCI screening, biological replicate Set 1, normalized to on-plate 0.3% DMSO controls (n=16 per plate)
[5] = CC_NCI screening, biological replicate Set 2
[6] = CC_NCI screening, biological replicate Set 2, normalized to on-plate 0.3% DMSO controls (n=16 per plate)
[7] = average of Set 1 and Set 2, normalized to 0.3% DMSO controls
[8] = CC_NCI screening, normalized to on-plate 0.3% DMSO controls
[9] = Clone V cells, 384-well, normalized to DMSO

Chain of full-length P. pyralis luciferase (P08659 whole entry N50D/N119G/S548I/K549A/L550V, looked up): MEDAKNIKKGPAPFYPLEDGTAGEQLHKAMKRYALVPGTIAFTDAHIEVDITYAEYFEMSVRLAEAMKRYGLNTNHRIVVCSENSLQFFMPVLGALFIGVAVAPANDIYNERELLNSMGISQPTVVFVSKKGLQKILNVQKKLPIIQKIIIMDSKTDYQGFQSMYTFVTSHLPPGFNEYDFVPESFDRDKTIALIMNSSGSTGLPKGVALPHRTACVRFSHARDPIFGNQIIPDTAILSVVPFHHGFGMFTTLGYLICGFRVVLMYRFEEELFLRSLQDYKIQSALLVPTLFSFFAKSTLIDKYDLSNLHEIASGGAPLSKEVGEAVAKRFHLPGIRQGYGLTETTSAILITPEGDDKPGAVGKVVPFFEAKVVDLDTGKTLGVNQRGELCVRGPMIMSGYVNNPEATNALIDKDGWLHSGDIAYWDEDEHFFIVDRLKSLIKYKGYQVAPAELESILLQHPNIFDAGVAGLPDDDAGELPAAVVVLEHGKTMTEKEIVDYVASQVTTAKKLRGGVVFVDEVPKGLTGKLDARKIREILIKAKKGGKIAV
T1 sequence (Q92915 1-252 isoform Q92915-2): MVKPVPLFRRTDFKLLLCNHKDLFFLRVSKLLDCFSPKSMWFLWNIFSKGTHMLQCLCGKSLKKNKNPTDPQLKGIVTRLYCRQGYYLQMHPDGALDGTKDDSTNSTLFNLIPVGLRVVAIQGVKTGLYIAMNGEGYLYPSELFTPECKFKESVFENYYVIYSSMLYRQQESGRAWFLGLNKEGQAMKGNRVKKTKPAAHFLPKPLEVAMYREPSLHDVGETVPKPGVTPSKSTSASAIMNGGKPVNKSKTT
T1 sequence (Q9UQD0 1763-1976 limits assumed): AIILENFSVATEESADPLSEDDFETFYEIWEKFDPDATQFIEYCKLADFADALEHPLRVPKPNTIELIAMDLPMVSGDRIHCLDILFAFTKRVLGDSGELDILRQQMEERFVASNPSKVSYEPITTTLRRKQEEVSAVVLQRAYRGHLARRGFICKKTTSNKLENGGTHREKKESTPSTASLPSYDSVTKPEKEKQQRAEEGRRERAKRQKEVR

SMILES	Split Luciferase Assay Z-score Set 1 [1, 3]	Split Luciferase Assay % Lum Set 1 [1, 4] [%]	Split Luciferase Assay Z-score Set 2 [1, 5]	Split Luciferase Assay %Lum Set 2 [1, 6] [%]	Split Luciferase Assay %Lum Avg [1, 7] [%]	Luciferase Assay % Lum (full-length luciferase counter-screen) [2, 8] [%]	Luciferase Assay Z-score (full-length luciferase counter-screen) [2, 8]	Toxicity Assay Z-score (CTB cell viability) (Clone V cells; 16 h, 30 µM)	viability at 16 h, 30 µM (in vitro) [%]	other results
CC(C)C[C@H](NC(=O)[C@H](CCc1ccccc1)NC(=O)CN1CCOCC1)C(=O)N[C@@H](Cc1ccccc1)C(=O)N[C@@H](CC(C)C)C(=O)[C@@]1(C)CO1 [Carfilzomib]	-0.68	91.64	-1.62	80.10	85.87	97.18	-0.36	–	–	Toxicity Assay Z-score (CTB cell viability) (Clone V cells): 1.05; viability (in vitro): 108%
O=NN(CCCl)C(=O)NCCCl [Carmustine]	0.55	–	0.24	–	–	102.90	0.37	–	–	Split Luciferase Assay % Lum Set 1 [1]: 106.86%; Split Luciferase Assay %Lum Avg [1]: 104.93%; Split Luciferase Assay %Lum Set 2 [1]: 102.99%; Toxicity Assay Z-score (CTB cell viability) (Clone V cells): 2.39; viability (in vitro): 117%
O=C(O)CCCc1ccc(N(CCCl)CCCl)cc1 [Chlorambucil, reference compound]	13.12	262.32	11.67	243.43	252.88	97.90	-0.27	–	–	Z-score (LCA primary screening) ([1]; 384-well): 12.39; EMax (% Luminescence) [1, 9]: 252.88 % Luminescence; EC50 ([1]; estimated, 8-point dose response 0.25-30 µM, n = 4 per concentration, library compounds, read-out: EC50): 16.4 µM; Toxicity Assay Z-score (CTB cell viability) (Clone V cells): 0.71; viability (in vitro): 105%
Nc1ccn([C@@H]2O[C@H](CO)[C@@H](O)[C@@H]2O)c(=O)n1 [Cytarabine hydrochloride]	-0.50	93.82	0.16	101.95	97.88	93.77	-0.80	1.12	108	–
CN(C)/N=N/c1[nH]cnc1C(N)=O [Dacarbazine]	3.01	–	2.70	133.16	135.23	–	–	0.82	106	Luciferase Assay % Lum (full-length luciferase counter-screen) [2]: 99.29%; Luciferase Assay Z-score (full-length luciferase counter-screen) [2]: -0.09
Nc1ncn([C@H]2C[C@H](O)[C@@H](CO)O2)c(=O)n1 [Decitabine, reference compound]	6.88	185.13	7.95	197.66	191.40	110.67	1.37	0.87	–	EC50 [1]: 28.8 µM; Z-score (LCA primary screening) ([1]; 384-well): 7.41; EMax (% Luminescence) [1, 9]: 191.40 % Luminescence; viability at 16 h, 30 µM (in vitro; Clone V cells): 106%
C[C@@H](CN1CC(=O)NC(=O)C1)N1CC(=O)NC(=O)C1 [Dexrazoxane]	1.26	115.56	1.51	118.60	117.08	–	–	2.09	115	Luciferase Assay % Lum (full-length luciferase counter-screen) [2]: 109.07%; Luciferase Assay Z-score (full-length luciferase counter-screen) [2]: 1.16
C#Cc1cccc(Nc2ncnc3cc(OCCOC)c(OCCOC)cc23)c1 [ERLOTINIB]	-0.76	90.56	-1.53	81.14	85.85	80.96	-2.44	0.46	–	viability at 16 h, 30 µM (in vitro; Clone V cells): 103%
O=c1[nH]cc(F)c(=O)[nH]1 [Fluorouracil]	0.64	107.95	1.34	116.51	112.23	111.63	1.49	0.61	104	–
CS(=O)(=O)c1ccc(C(=O)Nc2ccc(Cl)c(-c3ccccn3)c2)c(Cl)c1 [GDC-0449]	3.10	–	2.02	124.84	131.61	95.45	-0.58	0.95	107	–
Nc1ccn([C@@H]2O[C@H](CO)[C@@H](O)C2(F)F)c(=O)n1 [Gemcitabine hydrochloride]	0.29	103.60	-0.43	94.67	99.13	102.42	0.31	2.40	–	viability at 16 h, 30 µM (in vitro; Clone V cells): 117%
COc1cc(O)c2c(c1)[C@H]1O[C@@H]1C[C@H](O)[C@H](O)C(=O)/C=C\C[C@H](C)OC2=O [HYPOTHEMYCIN]	-3.75	53.59	-4.16	48.89	51.24	72.32	-3.54	–	–	Toxicity Assay Z-score (CTB cell viability) (Clone V cells): 0.42; viability (in vitro): 103%
CC(=O)[C@]1(O)Cc2c(O)c3c(c(O)c2[C@@H](O[C@H]2C[C@H](N)[C@H](O)[C@H](C)O2)C1)C(=O)c1ccccc1C3=O [Idarubicin hydrochloride]	0.12	101.43	-0.69	91.55	96.49	114.41	1.85	1.79	–	viability at 16 h, 30 µM (in vitro; Clone V cells): 113%
O=P1(NCCCl)OCCCN1CCCl (stereo not shown) [Ifosfamide]	1.26	115.56	-0.01	99.87	107.71	96.59	-0.44	–	–	Toxicity Assay Z-score (CTB cell viability) (Clone V cells): 0.82; viability (in vitro): 106%
CC(C)Cn1cnc2c(N)nc3ccccc3c21 [Imiquimod]	1.35	116.65	1.01	112.35	114.50	104.72	0.60	1.03	107	–
Cc1[nH]c2ccccc2c1CCNCc1ccc(/C=C/C(=O)NO)cc1 [LBH-589]	-1.99	75.34	-0.18	97.79	86.56	101.54	0.20	0.78	–	viability at 16 h, 30 µM (in vitro; Clone V cells): 106%
O=c1cc(N2CCOCC2)oc2c(-c3ccccc3)cccc12 [LY 294002]	-0.94	88.38	-1.87	76.98	82.68	80.46	-2.50	-0.14	99	–
CN(C)C[C@@H]1CCn2cc(c3ccccc32)C2=C(C(=O)NC2=O)c2cn(c3ccccc23)CCO1 [LY 333531, reference compound]	-4.72	41.64	-5.94	27.05	34.34	78.46	-2.76	0.14	101	Z-score (LCA primary screening) ([1]; 384-well): −5.33; IMin (% Luminescence) ([1]; antagonists, Clone V cells, 384-well, normalized to DMSO): 34.34 % Luminescence; IC50 ([1]; estimated, 8-point dose response 0.25-30 µM, n = 4 per concentration, library compounds, read-out: IC50): 12.2 µM
